Laboratory results: patent publication US20160376605A1, “WHEAT PLANTS HAVING INCREASED TOLERANCE TO IMIDAZOLINONE HERBICIDES” (BASF SE, priority 2003, published 2016)

Columns and labels:
Durum line C119 = assay: Greenhouse Trial: plant injury rating, imazamox; format: in vivo, Durum wheat; settings: 0-9 scale, 0 = no injury, 9 = plant death
Experimental: (§1) Fifteen Durum lines, each derived from a different M2 plant, and two wild type durum lines were evaluated for tolerance to the imidazolinone herbicide imazamox at rates of 100 and 160 g/ha in a greenhouse trial. Evaluations of tolerance were made at 14 and 21 days after treatment. Injury was scored on a 0-9 scale, with 0 representing no injury and 9 plant death.

Durum line UT12 = assay: Greenhouse Trial: plant injury rating, imazamox; format: in vivo, Durum wheat; settings: 0-9 scale, 0 = no injury, 9 = plant death
Experimental: as §1

Durum line UTO1 = assay: Greenhouse Trial: plant injury rating, imazamox; format: in vivo, Durum wheat; settings: 0-9 scale, 0 = no injury, 9 = plant death
Experimental: as §1

Durum line UTO5 = assay: Greenhouse Trial: plant injury rating, imazamox; format: in vivo, Durum wheat; settings: 0-9 scale, 0 = no injury, 9 = plant death
Experimental: as §1

Durum line UT20 = assay: Greenhouse Trial: plant injury rating, imazamox; format: in vivo, Durum wheat; settings: 0-9 scale, 0 = no injury, 9 = plant death
Experimental: as §1

Durum line UT19 = assay: Greenhouse Trial: plant injury rating, imazamox; format: in vivo, Durum wheat; settings: 0-9 scale, 0 = no injury, 9 = plant death
Experimental: as §1

Durum line UTO7 = assay: Greenhouse Trial: plant injury rating, imazamox; format: in vivo, Durum wheat; settings: 0-9 scale, 0 = no injury, 9 = plant death
Experimental: as §1

Durum line UTO8 = assay: Greenhouse Trial: plant injury rating, imazamox; format: in vivo, Durum wheat; settings: 0-9 scale, 0 = no injury, 9 = plant death
Experimental: as §1

Durum line UT10 = assay: Greenhouse Trial: plant injury rating, imazamox; format: in vivo, Durum wheat; settings: 0-9 scale, 0 = no injury, 9 = plant death
Experimental: as §1

Durum line UT13 = assay: Greenhouse Trial: plant injury rating, imazamox; format: in vivo, Durum wheat; settings: 0-9 scale, 0 = no injury, 9 = plant death
Experimental: as §1

Durum line UT16 = assay: Greenhouse Trial: plant injury rating, imazamox; format: in vivo, Durum wheat; settings: 0-9 scale, 0 = no injury, 9 = plant death
Experimental: as §1

Durum line UTO3 = assay: Greenhouse Trial: plant injury rating, imazamox; format: in vivo, Durum wheat; settings: 0-9 scale, 0 = no injury, 9 = plant death
Experimental: as §1

[1] = system: Wild Type Line UT (durum); assay: Greenhouse Trial: plant injury rating, imazamox; format: in vivo, Durum wheat; settings: for Average plant injury rating: Wild Type Line UT, 0-9 scale, 0 = no injury, 9 = plant death
Experimental: as §1

Durum line UT15 = assay: Greenhouse Trial: plant injury rating, imazamox; format: in vivo, Durum wheat; settings: 0-9 scale, 0 = no injury, 9 = plant death
Experimental: as §1

Durum line UT17 = assay: Greenhouse Trial: plant injury rating, imazamox; format: in vivo, Durum wheat; settings: 0-9 scale, 0 = no injury, 9 = plant death
Experimental: as §1

Durum line UT14 = assay: Greenhouse Trial: plant injury rating, imazamox; format: in vivo, Durum wheat; settings: 0-9 scale, 0 = no injury, 9 = plant death
Experimental: as §1

[2] = system: Durum wheat M3:4 lines derived from M2 plant UT17; assay: Field Trials (2): tolerance scores at two rates of imazamox; format: in vivo; settings: UT17, range across M3:4 lines
From the text: One hundred ten M3:4 lines derived from sixteen M2 plants were screened at 71 g/ha and 160 g/ha imazamox. The number of M4 lines per M2 plant varied from one to twenty. Tolerance of M3:4 lines was compared to untreated plots of the same line as well as to treated plots of a wild-type cultivar from which some of them were derived.
(§2) All tested lines survived at both rates of herbicide treatment, whereas all plants of the wild type were killed at both rates. Based on comparison to the wild type line, all lines tested expressed considerable tolerance to the applied rates, particularly when looking at height reduction relative to untreated plots. A rate of 35 g/ha imazamox is adequate to kill susceptible durum wheat.

susceptible durum wheat = assay: Imazamox rate killing susceptible wheat; format: in vivo
Experimental: Nine M4:6 lines derived from four M2 plants (C119, C132, C137, CO12) were evaluated in a replicated trial at one location in a durum growing area in Italy. 75 g/ha of imazamox was applied to BBCH growth stage 21-25 plants. A rate of 35 g/ha would typically result in virtually 100% mortality of susceptible wheat. Percent crop response (overall injury) varied from 0 to 13% 21 days after treatment (DAT), and from 0 to 17% 43 DAT. Yield as a percent of the same line untreated varied from 85% to 102%.
as §2
A rate of 35 g/ha imazamox is adequate to kill susceptible Durum wheat.

[3] = system: AHAS of M2-derived imidazolinone herbicide tolerant lines; assay: In vitro AHAS activity, tolerant lines overall; format: biochemical, Durum wheat; settings: highest concentration of imazamox (100 uM), 'generally'
From the text: The in vitro activity of AHAS enzyme extracted from the plant can be measured biochemically. […] Even at relatively low concentrations, AHAS activity falls off rapidly.
Table 3 also contains AHAS activity data for several M2-derived imidazolinone herbicide tolerant lines.

COCc1cnc(C2=NC(C)(C(C)C)C(=O)N2)c(C(=O)O)c1 (stereo not shown) [imazamox]
Average plant injury rating (Durum line C119; imazamox 100 g/ha, 14 DAT): 4.8 | Average plant injury rating (Durum line C119; imazamox 100 g/ha, 21 DAT): 1.0 | Average plant injury rating (Durum line C119; imazamox 160 g/ha, 14 DAT): 4.9 | Average plant injury rating (Durum line C119; imazamox 160 g/ha, 21 DAT): 1.4 | Average plant injury rating (Durum line UT12; imazamox 100 g/ha, 14 DAT): 4.8 | Average plant injury rating (Durum line UT12; imazamox 100 g/ha, 21 DAT): 2.1 | Average plant injury rating (Durum line UT12; imazamox 160 g/ha, 14 DAT): 5.7 | Average plant injury rating (Durum line UT12; imazamox 160 g/ha, 21 DAT): 2.8 | Average plant injury rating (Durum line UTO1; imazamox 100 g/ha, 14 DAT): 4.0 | Average plant injury rating (Durum line UTO1; imazamox 100 g/ha, 21 DAT): 1.4 | Average plant injury rating (Durum line UTO1; imazamox 160 g/ha, 14 DAT): 4.1 | Average plant injury rating (Durum line UTO1; imazamox 160 g/ha, 21 DAT): 2.6 | Average plant injury rating (Durum line UTO5; imazamox 100 g/ha, 14 DAT): 3.0 | Average plant injury rating (Durum line UTO5; imazamox 100 g/ha, 21 DAT): 1.3 | Average plant injury rating (Durum line UTO5; imazamox 160 g/ha, 14 DAT): 3.3 | Average plant injury rating (Durum line UTO5; imazamox 160 g/ha, 21 DAT): 1.8 | Average plant injury rating (Durum line UT20; imazamox 100 g/ha, 14 DAT): 5.0 | Average plant injury rating (Durum line UT20; imazamox 100 g/ha, 21 DAT): 2.1 | Average plant injury rating (Durum line UT20; imazamox 160 g/ha, 14 DAT): 5.3 | Average plant injury rating (Durum line UT20; imazamox 160 g/ha, 21 DAT): 2.5 | Average plant injury rating (Durum line UT19; imazamox 100 g/ha, 14 DAT): 3.3 | Average plant injury rating (Durum line UT19; imazamox 100 g/ha, 21 DAT): 1.1 | Average plant injury rating (Durum line UT19; imazamox 160 g/ha, 14 DAT): 3.6 | Average plant injury rating (Durum line UT19; imazamox 160 g/ha, 21 DAT): 1.7 | Average plant injury rating (Durum line UTO7; imazamox 100 g/ha, 14 DAT): 3.7 | Average plant injury rating (Durum line UTO7; imazamox 100 g/ha, 21 DAT): 1.9 | Average plant injury rating (Durum line UTO7; imazamox 160 g/ha, 14 DAT): 4.4 | Average plant injury rating (Durum line UTO7; imazamox 160 g/ha, 21 DAT): 2.5 | Average plant injury rating (Durum line UTO8; imazamox 100 g/ha, 14 DAT): 4.5 | Average plant injury rating (Durum line UTO8; imazamox 100 g/ha, 21 DAT): 1.9 | Average plant injury rating (Durum line UTO8; imazamox 160 g/ha, 14 DAT): 5.5 | Average plant injury rating (Durum line UTO8; imazamox 160 g/ha, 21 DAT): 3.0 | Average plant injury rating (Durum line UT10; imazamox 100 g/ha, 14 DAT): 5.8 | Average plant injury rating (Durum line UT10; imazamox 100 g/ha, 21 DAT): 4.3 | Average plant injury rating (Durum line UT10; imazamox 160 g/ha, 14 DAT): 6.5 | Average plant injury rating (Durum line UT10; imazamox 160 g/ha, 21 DAT): 5.1 | Average plant injury rating (Durum line UT13; imazamox 100 g/ha, 14 DAT): 4.7 | Average plant injury rating (Durum line UT13; imazamox 100 g/ha, 21 DAT): 2.3 | Average plant injury rating (Durum line UT13; imazamox 160 g/ha, 14 DAT): 5.8 | Average plant injury rating (Durum line UT13; imazamox 160 g/ha, 21 DAT): 3.4 | Average plant injury rating (Durum line UT16; imazamox 100 g/ha, 14 DAT): 5.4 | Average plant injury rating (Durum line UT16; imazamox 100 g/ha, 21 DAT): 2.0 | Average plant injury rating (Durum line UT16; imazamox 160 g/ha, 14 DAT): 4.9 | Average plant injury rating (Durum line UT16; imazamox 160 g/ha, 21 DAT): 2.8 | Average plant injury rating (Durum line UTO3; imazamox 100 g/ha, 14 DAT): 4.8 | Average plant injury rating (Durum line UTO3; imazamox 100 g/ha, 21 DAT): 2.2 | Average plant injury rating (Durum line UTO3; imazamox 160 g/ha, 14 DAT): 5.2 | Average plant injury rating (Durum line UTO3; imazamox 160 g/ha, 21 DAT): 2.8 | Average plant injury rating ([1]; imazamox 100 g/ha, 14 DAT): 8.9 | Average plant injury rating ([1]; imazamox 100 g/ha, 21 DAT): 9.0 | Average plant injury rating ([1]; imazamox 160 g/ha, 14 DAT): 9.0 | Average plant injury rating ([1]; imazamox 160 g/ha, 21 DAT): 9.0 | survival of wild type plants ([1]; imazamox 100 and 160 g/ha, by 21 days after treatment): killed | Average plant injury rating (Durum line UT15; imazamox 100 g/ha, 14 DAT): 4.3 | Average plant injury rating (Durum line UT15; imazamox 100 g/ha, 21 DAT): 2.7 | Average plant injury rating (Durum line UT15; imazamox 160 g/ha, 14 DAT): 4.6 | Average plant injury rating (Durum line UT15; imazamox 160 g/ha, 21 DAT): 3.0 | Average plant injury rating (Durum line UT17; imazamox 100 g/ha, 14 DAT): 4.1 | Average plant injury rating (Durum line UT17; imazamox 100 g/ha, 21 DAT): 2.5 | Average plant injury rating (Durum line UT17; imazamox 160 g/ha, 14 DAT): 4.7 | Average plant injury rating (Durum line UT17; imazamox 160 g/ha, 21 DAT): 3.1 | Average plant injury rating (Durum line UT14; imazamox 100 g/ha, 14 DAT): 3.1 | Average plant injury rating (Durum line UT14; imazamox 100 g/ha, 21 DAT): 1.7 | Average plant injury rating (Durum line UT14; imazamox 160 g/ha, 14 DAT): 4.8 | Average plant injury rating (Durum line UT14; imazamox 160 g/ha, 21 DAT): 3.5 | % Chlorosis ([2]; imazamox 71 g/ha, 14 DAT): 5-20% | % Height Reduction ([2]; imazamox 71 g/ha, 14 DAT): 0-20% | % Chlorosis ([2]; imazamox 71 g/ha, 30 DAT): 0% | % Height Reduction ([2]; imazamox 71 g/ha, 30 DAT): 5-20% | % Chlorosis ([2]; imazamox 160 g/ha, 14 DAT): 5-30% | % Height Reduction ([2]; imazamox 160 g/ha, 14 DAT): 0-30% | % Chlorosis ([2]; imazamox 160 g/ha, 30 DAT): 0-5% | % Height Reduction ([2]; imazamox 160 g/ha, 30 DAT): 5-30% | rate adequate to kill susceptible durum wheat (susceptible durum wheat; imazamox application rate): 35 g/ha | mortality at 35 g/ha (susceptible durum wheat; read-out: mortality of susceptible wheat): ~100% | AHAS activity relative to that of the control [3]: one third to one half
